Series [1] is classed as physicochemical. An excerpt: Once the iron had been removed, the solution was adjusted to pH 5.5 with 1.7 M sodium acetate buffer. The resulting precipitate was carefully washed by centrifugation in 0.7 M sodium acetate buffer, until the residual EDTA concentration could be expected to be negligible compared to that of the conjugate.
The nature of series [2]: Removal of iron with propionic acid/EDTA, followed by spectroscopy (loss of the 400-450 nm peak). The note with it: test solution of 1 mM ferrioxamine B. In kind it is physicochemical. The source says:
The pink colour of the solution was rapidly lost. If desired the reaction can be followed spectroscopically, since after removal of iron the peak between 400 nm and 450 nm, characteristic of the ferrioxamine B conjugate will disappear completely.

Results on two compounds are retold here after patent publication US7538182B2, “Polypeptide and protein derivatives and process for their preparation” (Amylin Pharmaceuticals, Inc., priority 1986, dated 2009).

For the compound “des-Ala^B30-insulin/desferrioxamine B conjugate [iron-free protein derivative]”, the “storage stability (capacity to be labelled)” value in series [1] was “without apparent impairment”.

In the case of `CC(=O)N([O-])CCCCCNC(=O)CCC(=O)N([O-])CCCCCNC(=O)CCC(=O)N([O-])CCCCCN.[Fe+3]` [ferrioxamine B], the “rate of the removal of iron” value in series [2] (pH 2.5) was “too rapid to follow”. In addition, the entries for the “half-time for the removal of iron” value in series [2] (pH 3) and in series [2] (pH 3.5) were “approximately 90 seconds” and “approximately 340 sec”, respectively.
